US10100022B2, “Sphingosine kinase inhibitors” (University of Virginia Patent Foundation, priority 2014, dated 2018)
Structures can show the parent of a compound that is named as a salt.

What was measured:
[1] = target: T1, human sphingosine kinase type 1 (hSPHK1) (Homo sapiens, UniProt Q9NYA1); assay: Sphingosine kinase assay, recombinant human SPHK1 ([32P]S1P product, scintillation counting); type: biochemical; settings: read-out: activity hSPHK1 (range estimate of KI)
T1 construct: made in house; host or cells: Sf9 insect cells (baculovirus)
Procedure, shortened: (§1)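 Activity read as [32P]S1P bound to cation exchange paper and quantified by scintillation counting, standard kinase protocol. Enzyme sources: human SPHK2 partially purified from baculovirus-infected Sf9 lysates; human SPHK1 as crude cleared Sf9 lysate.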

[2] = target: T2, human sphingosine kinase type 2 (hSPHK2) (Homo sapiens, UniProt Q9NRA0); assay: Sphingosine kinase assay, recombinant human SPHK2 ([32P]S1P product, scintillation counting); type: biochemical; settings: read-out: activity hSPHK2 (range estimate of KI)
T2 construct: purchased; host or cells: Sf9 insect cells (baculovirus)
T2 sequence (Q9NRA0 1-654): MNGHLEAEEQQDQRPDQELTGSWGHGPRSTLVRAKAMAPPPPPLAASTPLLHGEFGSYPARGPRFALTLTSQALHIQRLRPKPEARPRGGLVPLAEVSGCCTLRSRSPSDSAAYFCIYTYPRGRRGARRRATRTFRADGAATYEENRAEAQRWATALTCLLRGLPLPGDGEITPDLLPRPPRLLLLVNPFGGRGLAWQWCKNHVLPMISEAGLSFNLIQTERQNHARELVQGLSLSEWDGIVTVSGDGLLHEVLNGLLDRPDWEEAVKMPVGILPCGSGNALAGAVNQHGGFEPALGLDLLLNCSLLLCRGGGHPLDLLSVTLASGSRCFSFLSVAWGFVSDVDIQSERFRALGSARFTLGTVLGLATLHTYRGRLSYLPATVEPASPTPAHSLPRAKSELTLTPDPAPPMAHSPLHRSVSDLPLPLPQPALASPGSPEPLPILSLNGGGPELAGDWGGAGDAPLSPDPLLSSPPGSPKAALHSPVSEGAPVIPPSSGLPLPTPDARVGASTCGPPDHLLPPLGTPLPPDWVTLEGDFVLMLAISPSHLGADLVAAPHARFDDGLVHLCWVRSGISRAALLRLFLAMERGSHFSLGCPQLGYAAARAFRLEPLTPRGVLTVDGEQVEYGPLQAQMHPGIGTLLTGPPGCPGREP
Procedure, shortened: as §1

T1 sequence (Q9NYA1 whole entry): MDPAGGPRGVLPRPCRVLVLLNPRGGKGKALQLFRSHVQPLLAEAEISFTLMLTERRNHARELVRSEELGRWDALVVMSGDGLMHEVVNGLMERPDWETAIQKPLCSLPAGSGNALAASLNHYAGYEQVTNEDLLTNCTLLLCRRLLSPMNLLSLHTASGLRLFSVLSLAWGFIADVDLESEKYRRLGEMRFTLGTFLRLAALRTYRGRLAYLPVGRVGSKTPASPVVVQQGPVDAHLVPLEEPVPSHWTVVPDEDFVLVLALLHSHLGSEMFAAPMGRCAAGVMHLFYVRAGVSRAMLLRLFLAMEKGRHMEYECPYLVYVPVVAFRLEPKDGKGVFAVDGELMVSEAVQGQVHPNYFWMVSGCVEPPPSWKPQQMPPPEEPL

Molecule `N=C(N)N1C[C@H](O)C[C@H]1c1nc(-c2ccc(OCCCc3ccc(Cl)c(Cl)c3)c(C(F)(F)F)c2)no1` [Compound 31A, amino((2S,4R)-2-(3-(4-(3-(3,4-dichlorophenyl)propoxy)-3-(trifluoromethyl)phenyl)-1,2,4-oxadiazol-5-yl)-4-hydroxypyrrolidin-1-yl)methaniminium chloride] has a Ki [1] of over 10 µM and a Ki [2] of under 1 µM.

With `CCCCCCCCOc1ccc(-c2noc([C@@H]3C[C@H](O)CN3C(=N)N)n2)cc1C(F)(F)F` [Compound 9A, amino((2S,4S)-4-hydroxy-2-(3-(4-(octyloxy)-3-(trifluoromethyl)phenyl)-1,2,4-oxadiazol-5-yl)pyrrolidin-1-yl)methaniminium chloride] the Ki [1] was over 10 µM and the Ki [2] was over 10 µM.

`N=C(N)N1CCC[C@H]1c1nc(-c2ccc(OC/C=C/c3ccc(F)cc3)c(C(F)(F)F)c2)no1` [Compound 87A, (S,E)-2-(3-(4-((3-(4-fluorophenyl)allyl)oxy)-3-(trifluoromethyl)phenyl)-1,2,4-oxadiazol-5-yl)pyrrolidine-1-carboximidamide hydrochloride] was tested, and the Ki [1] was over 10 µM and the Ki [2] was under 1 µM.

In the case of `CCCCCCCCOc1ccc(-c2noc([C@@H]3C[C@@H](O)CN3C(=N)N)n2)cc1C(F)(F)F` [Compound 8A, amino((2S,4R)-4-hydroxy-2-(3-(4-(octyloxy)-3-(trifluoromethyl)phenyl)-1,2,4-oxadiazol-5-yl)pyrrolidin-1-yl)methaniminium chloride], the Ki [1] is reported as over 10 µM and the Ki [2] is reported as under 1 µM.

`N=C(N)N1CCC[C@H]1c1nc(-c2ccc(OCCCCO)c(C(F)(F)F)c2)no1` [Compound 45A, (S)-2-(3-(4-(4-hydroxybutoxy)-3-(trifluoromethyl)phenyl)-1,2,4-oxadiazol-5-yl)pyrrolidine-1-carboximidamide hydrochloride] was tested, and the Ki [1] was over 10 µM and the Ki [2] was 1 to 10 µM.

`CCCCCCOc1ccc(-c2noc([C@@H]3CCCN3C(=N)N)n2)cc1C(F)(F)F` [Compound 12B] gave a Ki [1] of 1 to 10 µM and a Ki [2] of under 1 µM.

In the case of `N=C(N)N1CCC[C@H]1c1nc(-c2ccc(OCCCc3ccc4c(c3)OCCO4)c(C(F)(F)F)c2)no1` [Compound 29A, (S)-amino(2-(3-(4-(3-(2,3-dihydrobenzo[b][1,4]dioxin-6-yl)propoxy)-3-(trifluoromethyl)phenyl)-1,2,4-oxadiazol-5-yl)pyrrolidin-1-yl)methaniminium chloride], the Ki [1] is reported as over 10 µM and the Ki [2] is reported as over 10 µM.

Work on `N=C(N)N1CCC[C@H]1c1nc(-c2ccc(OC/C=C/c3cccc(Br)c3)c(C(F)(F)F)c2)no1` [Compound 86A, (S,E)-2-(3-(4-((3-(3-bromophenyl)allyl)oxy)-3-(trifluoromethyl)phenyl)-1,2,4-oxadiazol-5-yl)pyrrolidine-1-carboximidamide hydrochloride] yielded a Ki [1] of over 10 µM and a Ki [2] of under 1 µM.

Work on `CCCCCCCCOc1ccc(-c2noc([C@@H]3CCCN3C(=N)N)n2)cc1C` [Compound 6B] yielded a Ki [1] of over 10 µM and a Ki [2] of under 1 µM.

For `N=C(N)N1CC[C@H](O)[C@H]1c1nc(-c2ccc(OCCCCc3ccc(C(F)(F)F)cc3)c(C(F)(F)F)c2)no1` [Compound 25A, amino((2S,3S)-3-hydroxy-2-(3-(3-(trifluoromethyl)-4-(4-(4-(trifluoromethyl)phenyl)butoxy)phenyl)-1,2,4-oxadiazol-5-yl)pyrrolidin-1-yl)methaniminium chloride], the Ki [1] was under 1 µM and the Ki [2] was under 1 µM.

Work on `CC(C)=CCC/C(C)=C/COc1ccc(-c2noc([C@@H]3CCCN3C(=N)N)n2)cc1C(F)(F)F` [Compound 93A, (S,E)-(2-(3-(4-((3,7-dimethylocta-2,6-dien-1-yl)oxy)-3-(trifluoromethyl)phenyl)-1,2,4-oxadiazol-5-yl)pyrrolidin-1-yl)(13-iodanylidene)methanamine hydrochloride] yielded a Ki [1] of over 10 µM and a Ki [2] of over 10 µM.

`COCCCCOc1ccc(-c2noc([C@@H]3CCCN3C(=N)N)n2)cc1C(F)(F)F` [Compound 46A, (S)-2-(3-(4-(4-methoxybutoxy)-3-(trifluoromethyl)phenyl)-1,2,4-oxadiazol-5-yl)pyrrolidine-1-carboximidamide 2,2,2-trifluoroacetate] showed a Ki [1] of over 10 µM and a Ki [2] of over 10 µM.

`CCCCCCCCCOc1ccc(-c2noc([C@@H]3CCCN3C(=N)N)n2)cc1C(F)(F)F` [Compound 1B] was tested, and the Ki [1] was over 10 µM and the Ki [2] was under 1 µM.

`N=C(N)N1CC[C@H](O)[C@H]1c1nc(-c2ccc(OCCCc3ccc(Cl)c(Cl)c3)c(C(F)(F)F)c2)no1` [Compound 28A] gave a Ki [1] of 1 to 10 µM and a Ki [2] of under 1 µM.

`CC(C)(C)c1ccc(CCc2ccc(-c3noc([C@@H]4CCCN4C(=N)N)n3)cc2C(F)(F)F)cc1` [Compound 61A] gave a Ki [1] of over 10 µM and a Ki [2] of under 1 µM.

`CCC/C=C\CCOc1ccc(-c2noc([C@@H]3CCCN3C(=N)N)n2)cc1C(F)(F)F` [Compound 84A, (S,Z)-amino(2-(3-(4-(hept-3-en-1-yloxy)-3-(trifluoromethyl)phenyl)-1,2,4-oxadiazol-5-yl)pyrrolidin-1-yl)methaniminium 2,2,2-trifluoroacetate] gave a Ki [1] of over 10 µM and a Ki [2] of under 1 µM.

Molecule `N=C(N)N1CCC[C@H]1c1nc(-c2ccc(CCC3CCCCC3)c(C(F)(F)F)c2)no1` [Compound 76A, (S)-amino(2-(3-(4-(2-cyclohexylethyl)-3-(trifluoromethyl)phenyl)-1,2,4-oxadiazol-5-yl)pyrrolidin-1-yl)methaniminium 2,2,2-trifluoroacetate] has a Ki [1] of over 10 µM and a Ki [2] of under 1 µM.

With `COCCCOc1ccc2cc(-c3noc([C@@H]4CCCN4C(=N)N)n3)ccc2c1` [Compound 57A, (S)-amino(2-(3-(6-(3-methoxypropoxy)naphthalen-2-yl)-1,2,4-oxadiazol-5-yl)pyrrolidin-1-yl)methaniminium chloride] the Ki [1] was over 10 µM and the Ki [2] was over 10 µM.

`COc1ccc(CCc2ccc(-c3noc([C@@H]4[C@@H](O)CCN4C(=N)N)n3)cc2C(F)(F)F)cc1` [Compound 41A, (2S,3S)-3-hydroxy-2-(3-(4-(4-methoxyphenethyl)-3-(trifluoromethyl)phenyl)-1,2,4-oxadiazol-5-yl)pyrrolidine-1-carboximidamide hydrochloride] gave a Ki [1] of 1 to 10 µM and a Ki [2] of under 1 µM.

In the case of `CCCCCCCn1ccc2c(-c3noc([C@@H]4CCCN4C(=N)N)n3)cccc21` [Compound 8B, (S)-amino(2-(3-(1-heptyl-1H-indol-4-yl)-1,2,4-oxadiazol-5-yl)pyrrolidin-1-yl)methaniminium chloride], the Ki [1] is reported as over 10 µM and the Ki [2] is reported as under 1 µM.

In the case of `N=C(N)N1CC[C@H](O)[C@H]1c1nc(-c2ccc(OCC3CCCCC3)c(C(F)(F)F)c2)no1` [Compound 96A, amino((2S,3S)-2-(3-(4-(cyclohexylmethoxy)-3-(trifluoromethyl)phenyl)-1,2,4-oxadiazol-5-yl)-3-hydroxypyrrolidin-1-yl)methaniminium chloride], the Ki [1] is reported as under 1 µM and the Ki [2] is reported as under 1 µM.

Work on `CCCCc1ccc(CCc2ccc(-c3noc([C@@H]4[C@@H](O)CCN4C(=N)N)n3)cc2C(F)(F)F)cc1` [Compound 37A, (2S,3S)-2-(3-(4-(4-butylphenethyl)-3-(trifluoromethyl)phenyl)-1,2,4-oxadiazol-5-yl)-3-hydroxypyrrolidine-1-carboximidamide hydrochloride] yielded a Ki [1] of 1 to 10 µM and a Ki [2] of under 1 µM.

`CCCC=CCOc1ccc(-c2noc([C@@H]3CCCN3C(=N)N)n2)cc1C(F)(F)F` [Compound 80A, (S)-amino(2-(3-(4-(hex-2-en-1-yloxy)-3-(trifluoromethyl)phenyl)-1,2,4-oxadiazol-5-yl)pyrrolidin-1-yl)methaniminium 2,2,2-trifluoroacetate] gave a Ki [1] of over 10 µM and a Ki [2] of 1 to 10 µM.

`N=C(N)N1CCC[C@H]1c1nc(-c2ccc3cc(OCc4cccc(C(F)(F)F)c4)ccc3c2)no1` [Compound 67A, (S)-amino(2-(3-(6-((3-(trifluoromethyl)benzyl)oxy)naphthalen-2-yl)-1,2,4-oxadiazol-5-yl)pyrrolidin-1-yl)methaniminium chloride] showed a Ki [1] of over 10 µM and a Ki [2] of 1 to 10 µM.

With `C=CCCOc1ccc(-c2noc([C@@H]3CCCN3C(=N)N)n2)cc1C(F)(F)F` [Compound 79A, (S)-2-(3-(4-(but-3-en-1-yloxy)-3-(trifluoromethyl)phenyl)-1,2,4-oxadiazol-5-yl)pyrrolidine-1-carboximidamide hydrochloride] the Ki [1] was over 10 µM and the Ki [2] was over 10 µM.

`CCCCCCCCCn1ccc2c(-c3noc([C@@H]4CCCN4C(=N)N)n3)cccc21` [Compound 10B, (S)-amino(2-(3-(1-nonyl-1H-indol-4-yl)-1,2,4-oxadiazol-5-yl)pyrrolidin-1-yl)methaniminium chloride] was tested, and the Ki [1] was over 10 µM and the Ki [2] was under 1 µM.

`CCCCCCCCCCn1ccc2ccc(-c3noc([C@@H]4CCCN4C(=N)N)n3)cc21` [Compound 18A, (S)-amino(2-(3-(1-decyl-1H-indol-6-yl)-1,2,4-oxadiazol-5-yl)pyrrolidin-1-yl)methaniminium chloride] was tested, and the Ki [1] was over 10 µM and the Ki [2] was 1 to 10 µM.

In the case of `CCCCCCCCOc1ccc(-c2noc([C@@H]3CCN3C(=N)N)n2)cc1C(F)(F)F` [Compound 13B], the Ki [1] is reported as 1 to 10 µM and the Ki [2] is reported as under 1 µM.
